Among the test systems are BT-549 breast; EKVX NSCLC; IGROV1 ovarian; MDA-MB-231 breast; OVCAR-4 ovarian; OVCAR-5 ovarian; OVCAR-8 ovarian; UACC-257 melanoma; UO-31 renal; RXF 393 renal.
Assay in all cases: inhibition of tumour cell growth, NCI panel, 48 h

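Results reflect a 48-hour exposure of cells in 96-well plates to compound at five concentrations. The concentration for 50% growth inhibition is given as GI50. TGI is the concentration that stops growth completely.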

In the case of `CCCC(=O)Nc1ncnc2c1ncn2C1OC2COP(=O)(O)OC2C1OC(=O)CCC` (configuration not stated), the TGI with BT-549 breast, with EKVX NSCLC, with MDA-MB-231 breast, in the assay with OVCAR-4 ovarian, in the assay on OVCAR-5 ovarian and in the assay on OVCAR-8 ovarian was over 1000 µM throughout. The TGI in the assay with UACC-257 melanoma and in the assay on UO-31 renal was over 1000 µM throughout. The GI50 in the assay with EKVX NSCLC, in the assay with IGROV1 ovarian, in the assay on OVCAR-4 ovarian, with OVCAR-5 ovarian, in the assay on OVCAR-8 ovarian and in the assay on UACC-257 melanoma was over 1000 µM throughout.
Turning to `C=CCCC(O)c1ccc(CCCCCCCCCCC)o1` (configuration not stated), the GI50 was 16.7 µM in the assay with BT-549 breast; 18.2 µM in the assay with EKVX NSCLC; 16.5 µM in the assay with IGROV1 ovarian; 12.6 µM in the assay with MDA-MB-231 breast; 18.3 µM in the assay with OVCAR-5 ovarian; 18.3 µM with OVCAR-8 ovarian. The GI50 is 18.5 µM in the assay with RXF 393 renal, 18.6 µM in the assay on UACC-257 melanoma and 20.9 µM in the assay with UO-31 renal. For the same compound, the TGI was determined as 30.7 µM with BT-549 breast; 32.9 µM with EKVX NSCLC; 32 µM in the assay on IGROV1 ovarian; 26.2 µM in the assay on MDA-MB-231 breast; 35.9 µM in the assay on OVCAR-5 ovarian; 35.6 µM in the assay with OVCAR-8 ovarian. The figures for the TGI in the assay with RXF 393 renal, in the assay with UACC-257 melanoma and in the assay with UO-31 renal were 36.5 µM, 33.9 µM and 36.1 µM, respectively.
Turning to `O=C(OC(CNc1c(C(=O)c2ccccc2)c(=O)n(Cc2ccccc2)c(=O)n1Cc1ccccc1)CN1CCCCC1)c1ccccc1` (configuration not stated), the GI50 with BT-549 breast is 25.5 µM; with EKVX NSCLC, 38.3 µM; with IGROV1 ovarian, 17.4 µM; with MDA-MB-231 breast it was 17.6 µM; in the assay with OVCAR-5 ovarian it was 24.7 µM; in the assay on OVCAR-8 ovarian, 18.3 µM. The GI50 in the assay with RXF 393 renal was 14.7 µM; in the assay with UACC-257 melanoma, 15.1 µM; in the assay on UO-31 renal, 16.7 µM. Also, the TGI in the assay with BT-549 breast is 82.9 µM; with EKVX NSCLC, over 100 µM; in the assay with IGROV1 ovarian it was 36.9 µM; in the assay on MDA-MB-231 breast, 32.4 µM; with OVCAR-5 ovarian, 63.4 µM; in the assay with OVCAR-8 ovarian, 39.7 µM. For the same compound, the TGI was 29.5 µM in the assay with RXF 393 renal, 32.5 µM with UACC-257 melanoma and 36 µM in the assay on UO-31 renal.
In the case of `O=C1CCCC(=O)C1C(=O)c1ccc(C(F)(F)F)cc1[N+](=O)[O-]`, the GI50 in the assay with BT-549 breast, in the assay with IGROV1 ovarian, in the assay on MDA-MB-231 breast, in the assay on OVCAR-4 ovarian, in the assay with OVCAR-5 ovarian and in the assay on OVCAR-8 ovarian was over 100 µM throughout. The GI50 with UACC-257 melanoma and with UO-31 renal was over 100 µM each time. The TGI with BT-549 breast, with IGROV1 ovarian, in the assay with MDA-MB-231 breast, in the assay with OVCAR-4 ovarian, in the assay on OVCAR-5 ovarian and in the assay on OVCAR-8 ovarian was over 100 µM each time. The TGI in the assay on UACC-257 melanoma and in the assay on UO-31 renal was over 100 µM each time.
In the case of `CCCN(CCC)c1ccc(/C=N/NC(=O)c2cccnc2)cc1`, the GI50 was 30.7 µM with BT-549 breast; 26.8 µM in the assay on EKVX NSCLC; 46.8 µM in the assay on IGROV1 ovarian; 35.4 µM with OVCAR-4 ovarian; 38 µM with OVCAR-5 ovarian; 31.3 µM with OVCAR-8 ovarian. In addition, the GI50 in the assay on RXF 393 renal is 19.2 µM; in the assay with UACC-257 melanoma, 31 µM; in the assay with UO-31 renal, 43.3 µM. Also, the TGI in the assay on BT-549 breast, with EKVX NSCLC, in the assay on IGROV1 ovarian, in the assay with OVCAR-4 ovarian, in the assay with OVCAR-5 ovarian and with OVCAR-8 ovarian was over 100 µM throughout. The TGI was 42.1 µM in the assay on RXF 393 renal, over 100 µM in the assay with UACC-257 melanoma and over 100 µM with UO-31 renal.
As for `CN1CCN(CCCOc2ccc3nc(Nc4ccc(C(F)(F)F)c(Cl)c4)ccc3c2)CC1`, the GI50 was 1.84 µM in the assay on BT-549 breast; 1.74 µM in the assay on EKVX NSCLC; 2.33 µM in the assay on IGROV1 ovarian; 1.13 µM in the assay on MDA-MB-231 breast; 1.71 µM in the assay with OVCAR-4 ovarian; 1.8 µM with OVCAR-5 ovarian. In addition, the GI50 in the assay with OVCAR-8 ovarian is 2.07 µM; in the assay with RXF 393 renal, 1.42 µM; with UO-31 renal, 1.72 µM. Further, the TGI with BT-549 breast was found to be 3.53 µM; with EKVX NSCLC it was 3.63 µM; in the assay with IGROV1 ovarian it was 5.3 µM; with MDA-MB-231 breast, 2.75 µM; with OVCAR-4 ovarian, 4.59 µM; in the assay on OVCAR-5 ovarian it was 3.75 µM. Further, the TGI in the assay on OVCAR-8 ovarian amounted to 4.64 µM; with RXF 393 renal, 3.03 µM; with UO-31 renal, 3.68 µM.
Turning to `COC(=O)c1cc(NC(=O)CN(CCN(CC(=O)O)CC(=O)Nc2ccc(O)c(C(=O)OC)c2)CC(=O)O)ccc1O`, the GI50 in the assay with BT-549 breast is 52.1 µM; in the assay with EKVX NSCLC, over 100 µM; with IGROV1 ovarian, over 100 µM; in the assay on MDA-MB-231 breast it was over 100 µM; in the assay on OVCAR-4 ovarian it was over 100 µM; in the assay with OVCAR-5 ovarian it was over 100 µM. Further, the GI50 in the assay on OVCAR-8 ovarian is 77.3 µM; with RXF 393 renal it was over 100 µM; with UO-31 renal, 42.7 µM. In addition, the TGI with BT-549 breast, in the assay on EKVX NSCLC, in the assay with IGROV1 ovarian, in the assay on MDA-MB-231 breast, in the assay on OVCAR-4 ovarian and in the assay on OVCAR-5 ovarian was over 100 µM in each case. The TGI in the assay on OVCAR-8 ovarian, in the assay on RXF 393 renal and in the assay with UO-31 renal was over 100 µM throughout.
For the compound `CC(=O)OC1CC(C)c2c(Cl)ncnc21` (configuration not stated), the GI50 in the assay with BT-549 breast, in the assay with IGROV1 ovarian, with MDA-MB-231 breast, in the assay on OVCAR-4 ovarian, in the assay with OVCAR-5 ovarian and in the assay with OVCAR-8 ovarian was over 100 µM throughout. Moreover, the GI50 in the assay with RXF 393 renal and in the assay with UO-31 renal was over 100 µM throughout. Also, the TGI in the assay with BT-549 breast, in the assay on IGROV1 ovarian, in the assay with MDA-MB-231 breast, with OVCAR-4 ovarian, in the assay on OVCAR-5 ovarian and in the assay on OVCAR-8 ovarian was over 100 µM throughout. Besides, the TGI in the assay with RXF 393 renal and in the assay on UO-31 renal was over 100 µM in each case.
On to `N=C(N)c1ccc(-c2ccc(-c3ccc(Cl)c(Cl)c3)o2)nc1`, for which the GI50 was 1.61 µM in the assay on BT-549 breast; 1.86 µM with EKVX NSCLC; 1.86 µM with IGROV1 ovarian; 1.64 µM in the assay with MDA-MB-231 breast; 1.57 µM in the assay on OVCAR-5 ovarian; 1.65 µM with RXF 393 renal. For the same compound, the GI50 in the assay with UO-31 renal is 1.5 µM. In addition, the TGI amounted to 3.15 µM with BT-549 breast; 3.76 µM in the assay with EKVX NSCLC; 3.59 µM in the assay with IGROV1 ovarian; 3.38 µM in the assay with MDA-MB-231 breast; 3.01 µM in the assay on OVCAR-5 ovarian; 3.58 µM with RXF 393 renal. This compound also yielded a TGI in the assay on UO-31 renal of 2.97 µM.
Regarding `CNc1ccc(C(=O)CC(O)CCC(C)C2OC(=O)CC(O)CC(=O)CC(O)CC(O)CC(O)CC(O)CC3(O)CC(O)C(C(=O)NCCc4ccccn4)C(CC(OC4OC(C)C(O)C(N)C4O)/C=C/C=C/C=C/C=C\C=C/C=C/C=C/C2C)O3)cc1` (configuration not stated), the GI50 with BT-549 breast is 1.27 µM; in the assay with EKVX NSCLC it was 0.134 µM; with MDA-MB-231 breast, 6.23 µM; in the assay with OVCAR-4 ovarian, 0.868 µM; in the assay on OVCAR-5 ovarian, 0.323 µM; in the assay with OVCAR-8 ovarian, 0.747 µM. The GI50 was 1.05 µM in the assay on RXF 393 renal and 0.551 µM in the assay on UO-31 renal. The TGI in the assay with BT-549 breast is over 50 µM; in the assay with EKVX NSCLC it was 0.49 µM; in the assay on IGROV1 ovarian it was over 50 µM; in the assay with MDA-MB-231 breast it was over 21.2 µM; with OVCAR-4 ovarian it was over 50 µM; with OVCAR-5 ovarian it was 2.02 µM. In the assay on RXF 393 renal, the TGI is 30.4 µM.
`N#C/C(=C\c1ccc([N+](=O)[O-])s1)c1nc2cc(Br)ccc2s1`: the GI50 with BT-549 breast was 0.165 µM; with EKVX NSCLC, 0.246 µM; in the assay on IGROV1 ovarian it was 0.254 µM; in the assay on MDA-MB-231 breast, 0.179 µM; in the assay with OVCAR-8 ovarian, 0.246 µM; in the assay with RXF 393 renal it was 0.325 µM. Also, the GI50 in the assay with UO-31 renal was 0.142 µM. In addition, the TGI in the assay with BT-549 breast turned out to be 0.815 µM; with EKVX NSCLC, 1.1 µM; in the assay with IGROV1 ovarian, 1.14 µM; in the assay with MDA-MB-231 breast it was 0.43 µM; in the assay on OVCAR-8 ovarian, 0.805 µM; with RXF 393 renal, 2.06 µM. This compound also yielded a TGI with UO-31 renal of 0.461 µM.
In the case of `O=C1C(Cl)=C(Nc2cccc(O)c2)C(=O)N1c1ccc(Cl)cc1Cl`, the GI50 in the assay with BT-549 breast is 13.9 µM; in the assay on EKVX NSCLC it was 57.3 µM; with IGROV1 ovarian it was 22.5 µM; in the assay on MDA-MB-231 breast, 23.3 µM; with OVCAR-4 ovarian it was 43.2 µM; in the assay on OVCAR-5 ovarian, 40.2 µM. Besides, the GI50 with OVCAR-8 ovarian was 28 µM; with RXF 393 renal, 17 µM; with UO-31 renal, 50.7 µM. In addition, the TGI was 54.6 µM with BT-549 breast; over 100 µM in the assay on EKVX NSCLC; 51.5 µM with IGROV1 ovarian; 77.5 µM in the assay on MDA-MB-231 breast; over 100 µM in the assay on OVCAR-4 ovarian; over 100 µM in the assay on OVCAR-5 ovarian. The TGI was 64.2 µM in the assay with OVCAR-8 ovarian, 67.3 µM with RXF 393 renal and over 100 µM in the assay on UO-31 renal.

The values above are taken from PubChem BioAssay (NCI).
